Experimental findings from the SangsterLogP compilation are described below.

As usually defined, the logP is a log measure of how a compound divides between an organic and an aqueous phase. The low end stands for lower lipophilicity, the high end for higher lipophilicity.

Molecule `Cc1cc(C)cc(C)c1` gave a logP of 3.84.
In turn, `Nc1c(Cl)cccc1Cl` had a log partition coefficient (logP) of 2.71.
Next, `Oc1ccc(Cl)c(Cl)c1`: 3.05; `Cc1cc(C)c(C)c(C)c1`: 4.17; `Cc1ccc(C)c(C)c1C`: 4.11.
Next, `Oc1cc(Cl)c(Cl)c(Cl)c1`: 3.75.
Regarding `Nc1ccc(Cl)c(Cl)c1Cl`, the logP amounted to 3.33.
Next, `Nc1c(Cl)c(Cl)c(Cl)c(Cl)c1Cl`: 4.59; `Oc1cc(Cl)cc(Cl)c1`: 3.26; `Cc1cc(C)c(C)c(C)c1C`: 4.56.
In turn, `Nc1cc(Cl)c(Cl)c(Cl)c1` gave a logP of 3.32.
`ClC1=C(Cl)C2(Cl)C3C4CC(C5OC45)C3C1(Cl)C2(Cl)Cl` (configuration not stated): the logP was 5.11.
